This passage reports melting point results from a melting point compilation (Tetko et al.; mined from patent text by program, amines drawn as free bases though some values may be those of a salt).

For `CCNCC1CCN(c2cc3c(cc2Cl)c(=O)c(C(=O)O)cn3C2CC2)C1` (stereo unspecified), the melting point is greater than 310 °C. The same measure for `COC(=O)c1ccc(OCC(O)c2cc3cc(C(C)(C)C)ccc3o2)cc1` (stereo unspecified): 110 to 112 °C; for `O=S1(=O)N=C(NCC2CCCCC2)Nc2cc(Cl)ccc21`: 317 to 323 °C; for `CCCCNC(=O)NS(=O)(=O)c1ccccc1CCl`: 104 to 106 °C. `Clc1nc2c(c(N3CCCC3)n1)SCCC2` came in with a melting point of 76 °C. Compound `CN1CCN(c2cccc(-n3cnc4cc(C#N)ccc43)c2)CC1` displayed a melting point of 158 to 160 °C.

In turn, `N#CC(Cc1ccc(O)cc1)c1noc2cc(O)ccc12` (stereo unspecified) registered a melting point of 214 °C. The figure for `CON=CNC(=O)c1ccc(C2=NOC(c3cc(Cl)cc(Cl)c3)(C(F)(F)F)C2)cc1C(C)(C)N` (stereo unspecified) is 144 to 146 °C; for `CS(=O)(=O)C(=C1CN(C(c2ccccc2)c2ccccc2)C1)c1cccc(C(N)=O)c1` it is 140 °C. As for `COC(=O)N1CCC(C2(NO)OCCO2)C(=O)C1` (stereo unspecified), the melting point lay within 150 to 152 °C. The figure for `CC(=O)OCc1c(C(=O)C(=O)O)c2cc(OCc3ccccc3)ccc2n1Cc1ccc(C(C)(C)C)cc1` is 145 to 146 °C; for `CCSC/C=C\c1cc(F)c2ncc(C(=O)NCc3ccc(Cl)cc3)c(O)c2c1` it is 203 to 205 °C; for `O=c1c2c(oc3cc(OCCN4CCOCC4)ccc13)C(=Cc1ccccc1)CC2` it is 167 to 169 °C. For the compound `Nc1cn(C2CCN(c3c(F)cc4c(=O)c(C(=O)O)cn(C5CC5)c4c3F)C2)nn1` (stereo unspecified), the melting point came out at 221 °C.

The compound `Cc1ccc(S(=O)(=O)OCCc2ccccc2Br)cc1` returned a melting point of 39 to 39.5 °C.

`CCOC(=O)Cc1ccc(NC(=O)/C=C/c2c(C)noc2-c2ccccc2)cc1` had a melting point of 164 to 165 °C. With `Cc1noc(NS(=O)(=O)c2ccc(-c3ccc4c(c3)OCO4)cc2)c1Br`, the melting point is 172 to 174 °C. The figure for `CC(=O)c1cccc(-n2ccnc2)c1` is 69 to 71 °C; for `CCC(=O)Cc1cc(OC)ccc1NC(=O)OC(C)(C)C` it is 80 to 81 °C. `CCOC(=O)C(C(=O)OCC)=C1CSC2=C1SCCNC2` registered a melting point of 87 to 89 °C. The figure for `CNC(=O)CN1CCc2cc(Nc3ncc(Cl)c(Nc4cc(Cl)ccc4OC)n3)c(OC)cc2CC1` is 127 to 136 °C; for `N#CCOc1cccc2c1c1cccc(F)c1n2Cc1ccccc1` it is 134 °C. The same measure for `O=C(O)c1ccccc1N1CCN(CC(O)COc2ccc3c(c2)OCO3)CC1` (stereo unspecified): 229 to 231 °C; for `O=C(Oc1ccc(-c2cc3ccc(OC(=O)c4ccccc4)cc3s2)cc1)c1ccccc1`: 216 to 218 °C; for `CN(C)CCNC(=O)c1cc(S(C)(=O)=O)c(Cl)cc1NCc1ccco1`: 102 to 105 °C. The compound `CCOc1cccc(C(C)CC(=O)Nc2sc3c(c2C#N)CCNC3)c1` (racemic) yielded a melting point of 178 to 180 °C.

The compound `O=S(=O)(NCc1ccncc1)c1ccc(-c2ccccc2Cl)cc1` registered a melting point of 138 to 141 °C. The figure for `CCOC(=O)c1cn(C2COC2)c2c(C)c(F)c(F)cc2c1=O` is 157 to 165 °C; for `CCN1CCN(CCc2ccc(-c3ccc4c(Nc5cc(OC)c(Cl)cc5Cl)c(C#N)cnc4c3)cc2)CC1` it is 75 to 78 °C; for `CSc1c(C)[nH]c2cccc([N+](=O)[O-])c12` it is 148 to 150 °C.

With `Cc1ccc(-c2ccccc2)cc1Cn1c(C)nn(C)c1=O`, the melting point was 139 °C. `CC(=O)C1=C(CS(=O)c2ccccc2)CC2C3CCC4=CC(=O)CCC4(C)C3=CCC12C` (stereo unspecified) returned a melting point of 160 to 163 °C. The figure for `COc1ccc2ccc3ccc(C=O)c4ccc1c2c34` is 135 to 136 °C; for `O=C(CO)Nc1ccccc1-c1nnc(C(c2ccc(Cl)cc2)c2c(Cl)cc(-n3ncc(=O)[nH]c3=O)cc2Cl)o1` (stereo unspecified) it is 235 °C; for `Cc1cc(C#C[Si](C)(C)C)ccc1-n1c(C(F)(F)F)nn(C)c1=S` it is 90 to 93 °C. The figure for `CC(=O)NC1(C)CCCc2nc(OCc3ccccc3)ccc21` (stereo unspecified) is 153 to 154 °C; for `COc1ccc(C2c3ccccc3C(c3ccc(OC)cc3)C2C(=O)O)cc1` (stereo unspecified) it is 192 to 193 °C. In turn, `COC(=O)[C@H](O)[C@@H](NC(=O)OC(C)(C)C)c1ccc(C#N)cc1` came in with a melting point of 250 °C.

`Cc1cn(C(C)C(=O)N(C)c2ccccc2)nc1-c1ccccc1` (stereo unspecified) yielded a melting point of 112 to 114 °C. The same measure for `O=C(Nc1ccccc1)Oc1cc(N2C(=O)C3=C(CCCC3)C2=O)c(F)cc1Cl`: 149 to 151 °C; for `CC(c1ccc2[nH]c(C(F)(F)F)nc2c1)n1ccnc1` (stereo unspecified): 165 °C. On to `O=C(C=Cc1ccc(F)cc1)C(c1ccccc1)c1ccccc1`, for which the melting point lay within 122 to 124 °C. The figure for `Nc1ccccc1Sc1ccc2c(c1)OCC(=O)N2` is 70 to 71 °C. For `CC(C)(C)OC(=O)N(C(=O)OC(C)(C)C)c1c(C#N)csc1C(=O)O`, the melting point lay within 159 to 160 °C. As to `Brc1cc(Br)c(OC2C=CCC2)c(I)c1` (stereo unspecified), the melting point fell in the range of 57 to 58 °C. The same measure for `Cc1ccc(-c2ccc3c(c2)C=C(C(=O)Nc2ccc(CS(=O)Cc4ccccc4)cc2)CCO3)cc1` (stereo unspecified): 208 to 209 °C.

Compound `N#CSc1nc(C(F)(F)F)nc2ccccc12` registered a melting point of 134 to 136 °C. Compound `COc1cc2c(c3c1OC(C)(C)C3)C(c1cccc(NC(=O)c3cccnc3)c1)=NC(C)(C)C2` came in with a melting point of 213 to 219 °C.

`CC(O)CN1CCC(c2noc3cc(F)ccc23)CC1` (stereo unspecified): the melting point was 45 to 47 °C. On to `C[C@H](Cc1ccc(-c2cc(F)c(C#N)c(F)c2)cc1)c1ccccc1`, for which the melting point was in the range of 60.7 to 62.2 °C. Take `O=C(OCN1C(=O)C2CCCN2S1(=O)=O)c1c(Cl)cccc1Cl` (stereo unspecified): the melting point was in the range of 92 to 93.5 °C. The same measure for `Cc1cc(=O)n(-c2ccc(C(F)(F)F)cc2)[nH]1`: 130 °C.

As for `O=C(O)c1cc(Br)cc2c1NCCC2C(=O)O` (stereo unspecified), the melting point was in the range of 238 to 239 °C. The figure for `COc1ccc(-c2c(C)ncc(C#N)c2Nc2ccc3[nH]ccc3c2C)cc1OC` is 202 to 203 °C. The figure for `N#Cc1c(N2CCCCC2)cc(-c2ccccc2)c2c1-c1ccccc1C2=O` is 166 to 168 °C.

On to `COCc1noc(N2CCC([C@H]3C[C@H]3CCOc3ccc(S(C)(=O)=O)cn3)CC2)n1`, for which the melting point fell in the range of 68 to 70 °C. The same measure for `Cc1ccc(CC2CCN(C(=O)CNc3ccc4[nH]c(=O)oc4c3)CC2)cc1`: 212 to 215 °C; for `CC(SC1COC(c2ccc(C(=O)Nc3ccc(CC#N)cc3)cc2)OC1)C(O)(Cn1cncn1)c1ccc(F)cc1F` (stereo unspecified): 188 °C.

`CNC(=O)c1cc(NC(=O)c2ccc(C)c(Nc3nccc(N4C=CC=NC4)n3)c2)cc(N2CCOCC2)c1` came in with a melting point of 153 to 156 °C. The same measure for `CS(=O)(=O)Nc1c(Br)cnn1-c1ccc(C(F)(F)F)cc1Cl`: 63 to 65 °C; for `COC(=O)c1ccc(OC)c(OC(C)(C)C)c1`: 98 to 100 °C; for `CC(C)c1nc(C2CCCCC2)cc(-c2ccc(F)cc2)c1CO`: 101 to 104 °C. Regarding `CC(C)CSc1cc(C(=O)O)cc(N)c1Oc1ccccc1`, the melting point fell in the range of 148 to 150 °C. The figure for `O=C(NCc1ccncc1)c1cc2ccnc(Cl)c2[nH]1` is greater than 340 °C; for `O=C(Nc1nc(Cc2ccccc2)c(C(=O)c2sc(NC(=O)Oc3ccccc3)nc2Cc2ccccc2)s1)Oc1ccccc1` it is greater than 285 °C; for `Cc1c(NC(=O)CC(C)(C)C)cc2c(c1C)OC(C)(C)C2(O)c1cccc(CO)c1` (stereo unspecified) it is 169 to 171 °C.

As to `O=C(Nc1cccc2c1C(=O)c1c-2n[nH]c1-c1ccc(C(=O)NN2CCCCC2)s1)NN1CCOCC1`, the melting point is 189 to 191 °C.

The compound `COC(=O)c1ccccc1-c1cc(-c2ccc(OC)cc2)on1` returned a melting point of 96.5 to 98 °C. `CCCCCCCCCCCCCCCCCCOc1cn(-c2ccccc2)c(CO)cc1=O` yielded a melting point of 67 to 72 °C.

On to `CCOC(=O)C1=C(C)NC(c2ncc[nH]2)=NC1c1ccccc1Cl` (stereo unspecified), for which the melting point fell in the range of 121 to 125 °C. As for `COc1ccc(C(=C2CCCCC2)c2ccc(OC)c(OC)c2)cc1OC`, the melting point came to 107 °C. The same measure for `Nc1ncnc2c1nc(SCC(O)COc1ccccc1)n2C1OC(CO)C(O)C1O` (stereo unspecified): 100 to 110 °C; for `CCOC(=O)Cc1nc(-c2ccc(Cl)cc2)oc1Sc1ccccc1`: 109 to 110 °C; for `Cc1nnc(-c2ccc3occ(-c4ccc(CO)cc4)c3c2)o1`: 157 to 158 °C. Compound `CCCC(CCC)C(=O)O[C@H]1CCC=C2C=C[C@H](C)[C@H](CC[C@@H]3C[C@@H](O)CC(=O)O3)[C@H]21` yielded a melting point of 92 to 94 °C. The compound `CC(C)C(SC(=O)c1ccccc1)C(=O)NCC(=O)O` (stereo unspecified) showed a melting point of 136 to 137 °C.

`CCc1noc(-c2cc3c(cn2)[nH]c2ccc(S(=O)(=O)N(C)C)cc23)n1` displayed a melting point of 266 to 268 °C. The same measure for `Nc1ncnc2c1ncn2OCC(O)COCP(=O)(O)O` (stereo unspecified): 218 to 221 °C. For the compound `CCOc1cccc(CC(=O)O)c1OCCCc1cn(-c2ccc(C(F)(F)F)cn2)nc1C1CCCCC1`, the melting point was in the range of 156 to 157 °C. The figure for `CCC1(CC)COC(c2cccc(NC(=O)NC)c2)OC1` is 112 to 125 °C. Compound `COc1cc(CCCS2(OCC(=O)O)C=CN=C2)cc(OCc2ccc3ccccc3c2)c1` (stereo unspecified) returned a melting point of 160 to 161 °C.

In the case of `O=c1[nH]c2ccc(F)c(F)c2c(=O)o1`, the melting point is greater than 240 °C. The same measure for `O=[N+]([O-])c1ccc(-c2ccsc2-c2ccc(F)cc2)cc1`: 108 to 110 °C; for `Cn1cccc(Cc2cc3cccc(-c4cccc(C(=O)NCCO)c4)c3s2)c1=O`: 173 to 174 °C; for `C1=COc2ccc3[nH]c4c(c3c2=C1)C=CN=CC=4`: greater than 177 °C. The same measure for `O=C(NCCSCc1ccccc1)c1c(Cl)cccc1Cl`: 96 to 97 °C.
